From publication PMC4924314, “Vertebrate TFPI-2 C-terminal peptides exert therapeutic applications against Gram-negative infections” (BMC Microbiology, 2016)

Tests used:
E. coli ATCC 25922 = test: Viable count analysis in mouse plasma; assay type: cell-based, Escherichia coli; conditions: E. coli ATCC 25922, viable count, mouse plasma (Figure S2)
Method: E. coli were grown to mid-exponential phase in Todd-Hewitt (TH). Bacteria were washed and diluted in 10 mM Tris, pH 7.4 either alone or with 20 % human or mouse (BALB/c) citrate-plasma. Bacterial (2 × 10^6 cfu/ml) were incubated in 50 μl, at 37 °C for 1 h with the C-terminal TFPI-2 derived peptides at the indicated concentrations. Serial dilutions of the incubation mixture were plated on TH agar, followed by incubation at 37 °C overnight and cfu determination. Additional file 1: Figure S1. Phylogenetic tree analysis of full-length and reminder protein except C-terminal TFPI-2 from vertebrates. Phylogenetic tree from 72 vertebrate TFPI-2 species was constructed using Neighbour-Joining tree with 1000 bootstrap replications on MEGA6. (PDF 54 kb) Additional file 2: Figure S2. Activities of TFPI-2 C-terminal derived peptides in mouse plasma. (Left) The bactericidal activity of mouse VKG24 peptide was assessed in physiological buffer conditions using viable count analysis. E. coli ATCC 25922 were grown to mid-logarithmic phase and incubated with varying concentrations of peptide. The antimicrobial activity was determined by plating serial dilutions of bacteria on TH agar plates and number of cfu was counted after overnight incubation. (Right) The activated partial thromboplastin time (aPTT) was determined by addition of buffer or 50 μM of VKG24 peptide to mouse plasma. […]

[1] = test system: intrinsic pathway of coagulation; test: Activated partial thromboplastin time (aPTT) in mouse plasma; assay type: biochemical; conditions: peptide 50 μM, n = 3 (Figure S2)
Method: All clotting times were analyzed using a coagulometer (Amelung, Lemgo, Germany). For determination of activated partial thromboplastin time (aPTT), 100 μl of a kaolin-containing solution (Technoclone) was added to the 100 μl of fresh citrate plasma or citrate plasma peptide mix and incubated at 37 °C for 200 s before clot formation was initiated by adding 100 μl of 30 mM fresh CaCl2 solution. For detection of prothrombin time (PT, thromboplastin reagent (Trinity Biotech)) 100 μl of fresh citrate plasma were incubated 60 s at 37 °C before clot formation was initiated by adding 100 μl of clotting reagent. Additional file 1: Figure S1. Phylogenetic tree analysis of full-length and reminder protein except C-terminal TFPI-2 from vertebrates. Phylogenetic tree from 72 vertebrate TFPI-2 species was constructed using Neighbour-Joining tree with 1000 bootstrap replications on MEGA6. (PDF 54 kb) Additional file 2: Figure S2. […] (Left) The bactericidal activity of mouse VKG24 peptide was assessed in physiological buffer conditions using viable count analysis. […] The antimicrobial activity was determined by plating serial dilutions of bacteria on TH agar plates and number of cfu was counted after overnight incubation. (Right) The activated partial thromboplastin time (aPTT) was determined by addition of buffer or 50 μM of VKG24 peptide to mouse plasma. […]

[2] = test system: E. coli LPS-induced septic shock in Balb/c mice; test: LPS-induced septic shock mouse model (survival, weight); assay type: in vivo; conditions: 10 mg/kg E. coli LPS i.p.
Method: (§1) Fig. 6 Treatment of LPS-induced septic shock mice with a mouse TFPI-2 derived peptide. Septic shock in Balb/c mice was induced by i.p. injection of 10 mg/kg E. coli LPS. […] Statistical comparisons of survival curves were performed using the Mantel-Cox’s test. ***P ≤ 0.0003. b Weight was determined daily. c Clotting times of aPTT and PT was measured in citrate plasma 24 h after LPS injection (n = 8). d The indicated cytokines were analyzed in plasma 24 h after LPS injection (n = 8). Statistical analysis for C-D, one-way ANOVA with Tukey’s multiple comparisons post-test was used. **P ≤ 0.003, ****P ≤ 0.0001
(§2) Male/female balb/c mice (8 weeks, 21 ± 5 g) were injected intraperitoneally (i.p.) with 10 mg E. coli 0111:B4 LPS (Sigma) per kg of body weight. Thirty minutes after LPS injection, 0.5 mg VKG24 (25 mg/kg) or PBS buffer alone (control) were injected i.p. into the mice. Status and weight were monitored daily for seven days. Mice where immobilization and/or shaking was observed were euthanized by an overdose of isoflurane (Abbott) and counted as non-survivors. For determination of cytokine levels in mouse plasma, animals were sacrificed 24 h after LPS injection. The blood was collected immediately by cardiac puncture into citrate tubes.

[3] = test system: intrinsic and extrinsic coagulation pathways; test: Clotting times (aPTT, PT) in citrate plasma of LPS-injected mice; assay type: in vivo, mouse; conditions: peptide ~25 mg/kg i.p.
Method: Fig. 6 Treatment of LPS-induced septic shock mice with a mouse TFPI-2 derived peptide. […] Statistical analysis for C-D, one-way ANOVA with Tukey’s multiple comparisons post-test was used. **P ≤ 0.003, ****P ≤ 0.0001
as §2
All clotting times were analyzed using a coagulometer (Amelung, Lemgo, Germany). For determination of activated partial thromboplastin time (aPTT), 100 μl of a kaolin-containing solution (Technoclone) was added to the 100 μl of fresh citrate plasma or citrate plasma peptide mix and incubated at 37 °C for 200 s before clot formation was initiated by adding 100 μl of 30 mM fresh CaCl2 solution. For detection of prothrombin time (PT, thromboplastin reagent (Trinity Biotech)) 100 μl of fresh citrate plasma were incubated 60 s at 37 °C before clot formation was initiated by adding 100 μl of clotting reagent.

[4] = test system: IL-6, MCP-1, IFN-γ, IL-10; test: Cytokine assay in plasma of LPS-injected mice; assay type: in vivo, mouse; conditions: 24 h after LPS injection, peptide ~25 mg/kg i.p., n = 8
Method: as §1, §2
Cytokines IL-6, IL-10, MCP-1, INF-γ and TNF-α were measured in plasma from mice infected by E. coli LPS (with or without peptide treatment) using the Cytometric bead array; mouse inflammation kit (Becton Dickinson AB) according to the manufacturer’s instructions. All plasma samples were stored at −80 °C before the analysis.

[5] = citrate plasma 24 h after LPS injection, n = 8

VKGWKKPKRWKIGDFLPRFWKHLS [VKG24, mouse TFPI-2 C-terminal derived peptide (O35536)]
antimicrobial activity in mouse plasma (E. coli ATCC 25922): potent | anti-coagulant activity in mouse plasma (aPTT) [1]: potent | survival rate ([2]; peptide 0.5 mg/mouse (~25 mg/kg) i.p. 30 min after LPS, monitored 7 days): dramatic improvement | body weight ([2]; peptide ~25 mg/kg i.p. 30 min after LPS, weight determined daily): started regaining their weight from day three | coagulation PT time [3, 5]: significantly decreased | coagulation aPTT time [3, 5]: significantly decreased | coagulation aPTT and PT levels in survivors ([3]; survivors): completely normalized | IFN-γ in plasma [4]: significant reduction | IL-6 in plasma [4]: significant reduction | IL-10 in plasma [4]: significant reduction | MCP-1 in plasma [4]: significant reduction
